The results in this text go back to patent US20130164747A1, “Predicting Treatment Response in Cancer Subjects” (University of South Florida, priority 2005, published 2013).

Structures are written as SMILES. Read-outs that look alike come from different tables or passages of the source.

One test has as its system H23 (NCI-H23) cells. Briefly: MTS assay (modified MTT), parent cell line. In kind it is cell-based. The procedure:
(§1) A modified MTT assay (MTS assay, Promega, Madison, Wis.) was used to assess the impact of RRM1 expression on therapeutic efficacy of gemcitabine and platinum-containing agents in vitro. This MTS assay utilized 3-(4,5-dimethylthiazol-2-yl)-5-(3-carboxymethoxyphenyl)-2-(4-sulfophenyl)-2H-tetrazolium as the reagent. The assay was performed by seeding 4,000 cells/well in 96 well flat-bottom plates. H23-Ct, H23-R1, H23siR1, H23siCt cells were continuously exposed to drug for 72 or 96 hr. After 3 hr of incubation at 37° C., the absorbance was measured at 490 nm in a microplate reader (Benchmark Plus, Bio-Rad, Hercules, Calif.). All experiments were repeated three times.
(§2) The MTS assay was performed by seeding 4,000 cells/well in 96 well flat-bottom plates. H23-Ct, H23-R1, H23 siR1, H23siCt cells were continuously exposed to drug for 72 or 96 h. The assay was performed with 3-(4,5-dimethylthiazol-2-yl)-5-(3-carboxymethoxyphenyl)-2-(4-sulfophenyl)-2H-tetrazolium reagent. After 3 h of incubation at 37° C., the absorbance was measured at 490 nm. All experiments were repeated three times.
For orientation: Tetrazolium dyes change colour on reduction, which living cells bring about.

For test [1], the system named is control cell lines H23-Ct and H23siCt. Briefly: Drug-induced apoptosis, annexin V labeling by flow cytometry. In kind it is cell-based. Particulars: 6 h. As to the method:
(§3) To determine drug-induced in vitro apoptosis, 3×10^5 cells/well were seeded in six-well plates and allowed to attach overnight. Chemotherapeutic agents were added to the culture at the indicated concentrations. After 2, 4, and 6 hours of treatment annexin V labeling of the cells was performed as recommended by the manufacturer (BD Pharmingen, San Diego, Calif.). The percentage of labeled cells was determined by flow cytometry (FACScalibur, Becton Dickinson, Franklin Lakes, N.J.). […] The proportion of cells labeled after 6 h of treatment with 250 nM gemcitabine was 6.6-6.9% in control cell lines, 2.6% in H23-R1, and 15.2% in H23siR1. Cisplatin exposure for 6 h at 200 nM yielded 14.5-15.1% apoptotic cells in H23-Ct and H23siCt, 5.5% apoptotic cells in H23-R1, and 19.0% apoptotic cells in H23siR1.
For orientation: A flow cytometer gives signals particle by particle.

In test [2] the test system is H23siCt cells. The test is described as follows: MTS assay, siRNA control cell line. In kind it is cell-based.
Excerpt: (§4) Reduced expression of RRM1 correlates with increased sensitivity to gemcitabine. Stable, genetically modified cell lines with increased and decreased RRM1 expression and corresponding controls were generated (Gautam et al., Oncogene 22:2135-42, 2003). H23, originating from a lung adenocarcinoma, was used as the parent cell line (Carney et al., Cancer Res 45:2913-23, 1985). H23siR1 was generated by stable transfection of NCI-H23 with a pSUPER-siRRM1 construct. These cells express an siRNA that targets RRM1, thereby causing decreased expression of RRM1. To generate this construct, the pSUPER-GFP/neo vector (OligoEngine, Seattle, Wash.) was digested with BglII and HindIII and the annealed oligonucleotides (5′-GATCCCCgacgctagagcggtettat[…]ataagaccgctctagcgte[…]-3′(SEQ ID NO:1) and 5′-[…]gacgctagagcggtcttatTC TCTTGAAataagaccgctctagcgtcGGG-3′ (SEQ ID NO:2)) were ligated into the vector. The 19 nucleotide RRM1 target sequences are denoted by lower-case letters. The control H23siCt cell line was generated which expressed an siRNA targeting the sequence […] (SEQ ID NO:3). This sequence has no similarity to any known gene. H23-R1 is a stable RRM1 overexpressing cell line, and H23-Ct is its corresponding control. Both were generated by transfection with full-length RRM1 cDNA cloned into the expression plasmid pCMV-Tag2 (Stratagene, La Jolla, Calif.) as previously described (Gautam et al., Oncogene 22:2135-42, 2003). The level of RRM1 expression in these cell lines was assessed by real-time quantitative RT-PCR and Western blot analysis.
as §1, §2

The test system of a further test is RRM1 expression. Briefly: Summary of observations: response by RRM1 expression level.
In the next test the test system is H23-Ct cells. The test is described as follows: MTS assay, control cell line of H23-R1. In kind it is cell-based.
Excerpt: as §4, §1, §2

Test [3] has as its system H23siCt cells. Briefly: Drug-induced apoptosis, annexin V labeling by flow cytometry. The class given is cell-based. The procedure: (§5) Induction of apoptosis as a result of drug exposure was determined with 3×10^5 cells/well in six-well plates after 2, 4 and 6 hours of treatment. Cells were then labeled with annexin V, and labeling was determined by flow cytometry (FACScalibur, Becton Dickinson). After 4 h and 6 h of gemcitabine treatment 2.55% and 5.05% of the H23siCt cells were apoptotic while 5.09% and 15.7% of H23siR1 cells were apoptotic (FIG. 4). Likewise, the proportion of apoptotic cells after exposure to […] was higher in H23siR1 than in control cells. […] The increased apoptosis caused by both drugs in cell lines with reduced RRM1 expression was significant (p<0.05) as compared to control cells.

The subject of test [4] is H23siR1 cells. Described as above. The class given is cell-based. As to the method:
as §3, §5

For test [5], the system named is H23-R1 cells. Described as above. In kind it is cell-based. The procedure:
as §3, §5

In test [6] the test system is H23-R1 cells. Briefly: MTS assay, RRM1-overexpressing cell line. In kind it is cell-based.
Excerpt: as §4, §1, §2

The subject of test [7] is H23siR1 cells. Briefly: MTS assay, cell line with siRNA-reduced RRM1 expression. In kind it is cell-based.
Excerpt: as §4, §1, §2

In another test the test system is ERCC1 expression. The test is described as follows: Summary of observations: response by ERCC1 expression level.
[8] abbreviates: Homo sapiens, H23 (NCI-H23) parent cell line, continuous exposure 72 or 96 hr, read-out: IC50 +/− SD.
Where [9] appears, read: RRM1 no change, continuous exposure 72 or 96 hr, read-out: IC50 +/− SD.
The mark [10] stands for this setting: H23-R1, RRM1 3-fold up, continuous exposure 72 or 96 hr, read-out: IC50 +/− SD.
[11] abbreviates: H23siR1, RRM1 5-fold down, continuous exposure 72 or 96 hr, read-out: IC50 +/− SD.
Where [12] appears, read: continuous exposure 72 or 96 h, read-out: IC50.
Setting [13] is: H23 (NCI-H23) parent cell line, continuous exposure 72 or 96 hr, read-out: IC50 +/− SD.

In the case of `Nc1ccn([C@@H]2O[C@H](CO)[C@@H](O)C2(F)F)c(=O)n1` [Gemcitabine, gemcitabine], the IC50 with H23 (NCI-H23) cells (setting [8]) turned out to be 500 nM; in the test on H23siCt cells [2] (setting [9]), 1020 nM; in the test on H23-Ct cells (setting [9]), 750 nM; with H23-R1 cells [6] (setting [10]), 6000 nM; in the test on H23siR1 cells [7] (setting [11]) it was 100 nM. Moreover, the “Proportion of cells labeled with annexin V” value in test [1] (control cell lines, 250 nM gemcitabine) was 6.6-6.9%; in the test on H23siR1 cells [4] (H23siR1, 250 nM gemcitabine, 6 h), 15.2%; in the test with H23-R1 cells [5] (H23-R1, 250 nM gemcitabine, 6 h) it was 2.6%. Further, in the test with RRM1 expression, the “Response at RRM1 high expression” value is “resistant”. Further, in the test on RRM1 expression, the “Response at RRM1 low expression” value is reported as “Sensitive”. Moreover, the Apoptotic cells turned out to be 2.55% in the test with H23siCt cells [3] (4 h of treatment (Example 4, FIG. 4)); 5.05% in the test on H23siCt cells [3] (6 h of treatment (Example 4, FIG. 4)); 5.09% in the test on H23siR1 cells [4] (H23siR1, 4 h of treatment (Example 4, FIG. 4)); 15.7% in the test on H23siR1 cells [4] (H23siR1, 6 h of treatment (Example 4, FIG. 4)). Besides, the “IC50 of H23-R1 higher than IC50 of H23-Ct (more resistant than control cell line)” value in the test on H23-R1 cells [6] (H23-R1 versus H23-Ct) was found to be 8 fold. Also, the “IC50 of H23siR1 lower than IC50 of H23siCt (more sensitive than control cell line)” value in the test with H23siR1 cells [7] (H23siR1 versus H23siCt) worked out at 10 fold.

On to `Nc1nc2[nH]cc(CCc3ccc(C(=O)N[C@@H](CCC(=O)O)C(=O)O)cc3)c2c(=O)[nH]1` [Pemetrexed, pemetrexed], for which, in the test on RRM1 expression, the “Response at RRM1 high expression” value is “resistant” and the “Response at RRM1 low expression” value is recorded as “Sensitive”.

For the molecule `CC(=O)O[C@@]12CO[C@@H]1C[C@H](O)[C@@]1(C)C(=O)[C@H](O)C3=C(C)[C@@H](OC(=O)[C@H](O)[C@@H](NC(=O)OC(C)(C)C)c4ccccc4)C[C@@](O)([C@@H](OC(=O)c4ccccc4)[C@H]21)C3(C)C` [Docetaxel, docetaxel], the IC50 with H23 (NCI-H23) cells (setting [8]) was found to be 1000 nM; in the test with H23siCt cells [2] (setting [9]), 2500 nM; in the test on H23-Ct cells (setting [9]) it was 700 nM; in the test on H23-R1 cells [6] (setting [10]), 9 nM; in the test on H23siR1 cells [7] (setting [11]), 6 nM. Besides, the “Response at RRM1 high expression” value in the test with RRM1 expression is recorded as “Sensitive”. Besides, the “Response at RRM1 low expression” value with RRM1 expression is reported as “Sensitive”. Moreover, in the test on RRM1 expression, the “Response at RRM1 medium expression” value is “Resistant”. In the test on H23siR1 cells [4] (H23siR1 versus control cells), the “Proportion of apoptotic cells compared with control cells” value is given as “higher”. In addition, the “Apoptosis compared with control cells” value in the test with H23-R1 cells [5] (H23-R1 versus control cells) is “more apoptosis”.

`CCC1=C[C@@H]2CN(C1)Cc1c([nH]c3ccccc13)[C@@](C(=O)OC)(c1cc3c(cc1OC)N(C)[C@H]1[C@@](O)(C(=O)OC)[C@H](OC(C)=O)[C@]4(CC)C=CCN5CC[C@]31[C@@H]54)C2` [Vinorelbine, vinorelbine]: the IC50 was 8000 nM with H23 (NCI-H23) cells (Homo sapiens, NCI-H23, continuous exposure 72 or 96 h, read-out: IC50); 20000 nM in the test on H23siCt cells [2] (setting [12]); 20000 nM in the test with H23-Ct cells (setting [12]); 400 nM in the test with H23-R1 cells [6] (H23-R1, continuous exposure 72 or 96 h, read-out: IC50); 10 nM in the test on H23siR1 cells [7] (H23siR1, continuous exposure 72 or 96 h, read-out: IC50). In the test with RRM1 expression, the “Response at RRM1 high expression” value is given as “Sensitive”. Besides, the “Response at RRM1 low expression” value in the test with RRM1 expression is reported as “Sensitive”. Moreover, the “Response at RRM1 medium expression” value with RRM1 expression is listed as “Resistant”.

As to `N.N.[Cl][Pt][Cl]` [Cisplatin, cisplatin], the IC50 in the test with H23 (NCI-H23) cells (setting [13]) was 1200 nM; in the test with H23siCt cells [2] (setting [9]), 1000 nM; with H23-Ct cells (setting [9]), 1250 nM; in the test on H23-R1 cells [6] (setting [10]), 1500 nM; in the test with H23siR1 cells [7] (setting [11]), 950 nM. Moreover, the Apoptotic cells was 14.5-15.1% in [1] (H23-Ct and H23siCt, cisplatin 200 nM); 19.0% in the test on H23siR1 cells [4] (H23siR1, cisplatin 200 nM, 6 h); 5.5% with H23-R1 cells [5] (H23-R1, cisplatin 200 nM, 6 h). The “Response at RRM1 high expression” value in the test with RRM1 expression is given as “Minimal”. Moreover, the “Response at RRM1 low expression” value in the test on RRM1 expression is “Minimal”. In addition, the “Response at ERCC1 high expression” value in the test with ERCC1 expression is “resistant”. Also, the “Response at ERCC1 low expression” value with ERCC1 expression is recorded as “sensitive”.

For the molecule `N.N.O=C([O-])C1(C(=O)[O-])CCC1.[Pt+2]` [Carboplatin, carboplatin], the IC50 in the test on H23 (NCI-H23) cells (setting [13]) came to 12000 nM; in the test with H23siCt cells [2] (setting [9]) it was 13000 nM; in the test with H23-Ct cells (setting [9]) it was 15000 nM; with H23siR1 cells [7] (setting [11]) it was 10000 nM. The “Response at RRM1 high expression” value in the test on RRM1 expression was “Minimal”. The “Response at RRM1 low expression” value in the test with RRM1 expression is given as “Minimal”. In addition, in the test with ERCC1 expression, the “Response at ERCC1 high expression” value is recorded as “resistant”. For the same molecule, in the test on ERCC1 expression, the “Response at ERCC1 low expression” value is given as “sensitive”.
